Patent US20260183399A1, “METHOD FOR MODULATING KINASE ACTIVITY AND USE THEREOF” (CENTER FOR EXCELLENCE IN MOLECULAR CELL SCIENCE, CHINESE …, priority 2022, published 2026)

Assays:
LKB1 kinase = biological target: T1, LKB1 kinase (Homo sapiens, UniProt Q15831); experiment: In vitro kinase experiment with LKB1 kinase (excluding STRAD1 and MO25) and His-AMPK α1; type: biochemical; settings: metabolite 100 μM; FIG. 1J
T1 construct: the general method says FLAG-LKB1 instead) (N); made in house; host or cells: HEK293T (293T) cells, transfected; immunoprecipitation
T1 sequence (Q15831 1-433): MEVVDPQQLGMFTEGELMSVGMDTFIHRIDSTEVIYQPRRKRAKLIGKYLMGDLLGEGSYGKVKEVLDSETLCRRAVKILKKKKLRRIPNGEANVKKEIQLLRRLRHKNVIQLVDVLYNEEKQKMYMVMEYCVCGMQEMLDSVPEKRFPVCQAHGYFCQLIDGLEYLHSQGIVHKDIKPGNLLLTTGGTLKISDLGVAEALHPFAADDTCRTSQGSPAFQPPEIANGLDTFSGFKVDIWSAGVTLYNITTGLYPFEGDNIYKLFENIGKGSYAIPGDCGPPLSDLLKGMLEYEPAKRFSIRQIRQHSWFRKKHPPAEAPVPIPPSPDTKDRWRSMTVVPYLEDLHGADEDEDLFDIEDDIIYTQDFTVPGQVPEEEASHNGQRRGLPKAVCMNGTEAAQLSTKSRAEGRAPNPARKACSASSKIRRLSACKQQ
Description: (§1) The final reaction system for kinase experiment was: 50 mM Tris HCl, 10 mM MgCl2, 1 mM DTT, and 100 μM ATP. HEK293T cells were co-transfected with equal amounts of GST-LKB1, FLAG-STRAD, MYC-MO25 plasmids or solely transfected with FLAG-LKB1 plasmid. The cells were collected, processed for immunoprecipitation using GST beads or FLAG beads, washed three times with cell lysis buffer containing NP-40, and washed twice with kinase reaction buffer. The His-AMPK protein was induced and purified using E. coli BL21 competent cells. The kinase was incubated with metabolites at 100 μM at room temperature for 15 minutes before reaction, then added with reaction buffer and His-AMPK protein, and reacted at […] for 30 minutes. The phosphorylation of AMPK protein was detected by Western blot.
The final reaction system for the kinase experiment was 50 mM Tris-HCl, 10 mM MgCl2, 1 mM DTT, and 100 μM ATP. […] The kinase complex was pre-incubated with metabolites at room temperature for 15 minutes before reaction. Then the reaction buffer and His-AMPK protein were added, and reacted at 37° C. for 30 minutes. The phosphorylation of AMPK protein was detected by Western blot.

[1] = test system: AMPK α-catalytic subunit phosphorylation in 293T cells; experiment: Metabolite treatment of glucose-starved 293T cells, Western blot of AMPK phosphorylation; type: cell-based; settings: glucose starvation 2 hours
Description: Cells were subjected to glucose starvation treatment using glucose free culture medium for 2 hours. The corresponding metabolites were added to the culture medium according to the instructions shown in FIG. 1C and FIG. 1D, so that their concentration in the culture medium reached the labeled level, if there was no labeling, the concentration of metabolites in the culture medium was […]. After treatment, cells were collected to prepare lysis buffer, and the changes in specific proteins and phosphorylation of specific sites were detected by Western blot.
When the expression and function of these metabolic enzymes are inhibited, their corresponding products are decreased. Therefore, we speculate that there may be a mechanism by which AMPK is regulated by metabolite molecules in the glycolytic metabolic pathway, and the activation level of AMPK is related to metabolite content. To verify this hypothesis, we added different doses of exogenous 3-phosphoglycerate (3-PG) to 293T cells subjected to glucose starvation treatment (activation of AMPK signaling pathway). […] After treatment, cells were collected to prepare lysate, and the changes in specific proteins and the changes in phosphorylation sites of AMPK α-catalytic subunit were detected by Western blot.

[2] = biological target: T2, LKB1-STRAD1-MO25 kinase complex (Homo sapiens, UniProt Q15831); experiment: In vitro kinase experiment with LKB1 kinase complex and His-AMPK α1; type: biochemical
T2 construct: GST (N); made in house; host or cells: HEK293T (293T) cells, co-transfected
T2 sequence (Q15831 1-433): T1 sequence (Q15831 1-433)
T2 sequence (Q7RTN6 1-431 partner): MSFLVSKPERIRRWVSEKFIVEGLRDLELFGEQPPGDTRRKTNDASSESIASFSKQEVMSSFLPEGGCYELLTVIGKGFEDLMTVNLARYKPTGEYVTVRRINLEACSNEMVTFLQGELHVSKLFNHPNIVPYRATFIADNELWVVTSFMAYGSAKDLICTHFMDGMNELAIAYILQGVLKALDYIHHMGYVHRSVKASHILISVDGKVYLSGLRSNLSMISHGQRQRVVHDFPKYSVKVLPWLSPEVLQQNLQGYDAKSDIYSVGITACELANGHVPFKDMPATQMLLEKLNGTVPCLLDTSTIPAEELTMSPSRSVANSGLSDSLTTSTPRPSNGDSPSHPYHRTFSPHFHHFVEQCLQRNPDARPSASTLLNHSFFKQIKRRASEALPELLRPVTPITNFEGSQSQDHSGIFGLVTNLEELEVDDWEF
T2 sequence (Q9Y376 1-341 partner): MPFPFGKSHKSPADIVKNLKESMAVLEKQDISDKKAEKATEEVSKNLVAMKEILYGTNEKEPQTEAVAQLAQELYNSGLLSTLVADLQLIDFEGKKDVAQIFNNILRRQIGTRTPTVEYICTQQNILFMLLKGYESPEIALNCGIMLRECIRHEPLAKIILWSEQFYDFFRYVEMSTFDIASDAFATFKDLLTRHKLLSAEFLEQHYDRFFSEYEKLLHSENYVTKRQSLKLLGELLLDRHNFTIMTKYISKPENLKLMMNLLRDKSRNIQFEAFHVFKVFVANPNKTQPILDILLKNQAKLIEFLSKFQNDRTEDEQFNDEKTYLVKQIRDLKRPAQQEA
Description: as §1
Given that LKB1 is a key upstream kinase that phosphorylates and activates the AMPK a subunit, we speculate that the aforementioned metabolites may affect the phosphorylation activation of AMPK a subunit by LKB1 kinase or LKB1 kinase complex. To verify this hypothesis, GST-LKB1, FLAG-STRAD1, and MYC-MO25 were co-transfected into 293T cells (2 μg of each expression plasmid, and transfected into about 7×10^6 cells). After 48 hours, cells were collected and lysed, and then the LKB1-STRAD1-MO25 kinase complex was subjected to glutathione-agarose bead affinity purification, and co-incubated with the recombinant His-AMPK α1 subunit expressed in E. coli for in vitro kinase experiments. The final reaction system for kinase experiment was: 50 mM Tris HCl, 10 mM MgCl2, 1 mM DTT, 100 μM ATP. At the same time, metabolites such as 3-phosphoglyceraldehyde (GAP) or 3-phosphoglycerate (3-PG) were added to 100 μM according to the diagram (as shown in FIG. 1H), or to a concentration of 50-400 μM as shown in the diagram (as shown in FIG. 1I). The kinase complex was pre-incubated with metabolites at room temperature for 15 minutes before reaction. Then the reaction buffer and His-AMPK protein were added, and reacted at 37° C. for 30 minutes. The phosphorylation of AMPK protein was detected by Western blot.

[3] = biological target: T3, recombinant human PGK1 protein (Homo sapiens, UniProt P00558); experiment: In vitro enzyme activity of PGK1 (ATP detection kit, IC50 inhibition curve); type: biochemical; settings: S33 0, 1, 3, 5, 7, 10, 30 μM; 37° C. for 25 minutes; FIG. 1F
T3 construct: made in house; host or cells: Escherichia coli
T3 sequence (P00558 1-417): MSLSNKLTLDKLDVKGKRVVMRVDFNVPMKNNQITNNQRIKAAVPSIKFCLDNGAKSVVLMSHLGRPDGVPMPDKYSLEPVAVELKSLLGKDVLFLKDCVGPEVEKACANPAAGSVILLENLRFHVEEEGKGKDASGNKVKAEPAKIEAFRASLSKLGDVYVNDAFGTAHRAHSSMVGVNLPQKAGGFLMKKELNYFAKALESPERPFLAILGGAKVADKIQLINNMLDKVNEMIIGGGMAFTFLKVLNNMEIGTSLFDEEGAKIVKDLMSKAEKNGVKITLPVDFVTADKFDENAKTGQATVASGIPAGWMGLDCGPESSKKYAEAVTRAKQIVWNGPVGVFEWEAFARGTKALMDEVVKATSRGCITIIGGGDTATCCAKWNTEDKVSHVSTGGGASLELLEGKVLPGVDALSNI
Description: A substrate buffer mixture with a final concentration of 10 mM KH2PO4, pH7.0, 2 mM GAP, 0.6 mM β-NAD, 0.4 mM ADP, 10 mM MgSO4, 200 mM Glycine, and 0.01 μg/μL GAPDH was prepared. The purified hPGK1 recombinant protein was diluted to 0.2 ng/μL. Inhibitors were added to the protein and a concentration gradient was set up. Each reaction was added with 100 μl of substrate and a mixture of 100 μl hPGK1 protein and inhibitor, and reacted at 37° C. for 25 minutes. After centrifuged at 10000 rpm for 10 minutes at 4° C., 100 μl of supernatant was taken. In the ATP detection kit (Beyotime S0026), the ATP detection solution was diluted with ATP detection diluent at a ratio of 1:10. In a 96 well blank plate, each well was added with 100 μl of diluted detection solution, and let it stand at room temperature for 5 minutes, added with 100 μl of supernatant from enzyme activity reaction, and reacted for 5 seconds, and a microplate reader was used to read the fluorescence value. The relative enzyme activity was calculated based on fluorescence values and IC50 values were calculated using GraphPad nonlinear regression fitting.
The compound (S33, patent number: ZL201610826187. X) reported in the previous patent is a PGK1 inhibitor (FIG. 1E), and we determined the inhibitory activity of compound S33 on PGK1. […]

[4] = test system: AMPK pathway (AMPK α-catalytic subunit and ACC1 phosphorylation) in HeLa and 293T cells; experiment: S33 treatment of HeLa and 293T cells, Western blot of AMPK pathway; type: cell-based; settings: 2, 5 and 10 μM, 2 hours, dose-dependent, FIG. 1G
Description: In order to investigate the regulatory effect of PGK1 inhibition on AMPK pathway, different concentrations of S33 (2, 5, and 10 μM, respectively) were added to the culture supernatants of HeLa and 293T cells, and treated for 2 hours. Cell lysate was collected and the changes in specific proteins and in AMPK α-catalytic subunit phosphorylation sites, as well as the phosphorylation of the classical substrate ACC1, downstream of the AMPK pathway, were detected by western blot.

Row | SMILES | phosphorylation of AMPK α1 by LKB1 kinase (LKB1 kinase) | phosphorylation of AMPK α1 by LKB1 kinase complex ([2]; metabolite 100 μM, FIG. 1H) | other results
1 | O=C(COP(=O)(O)O)[C@@H](O)[C@H](O)[C@H](O)COP(=O)(O)O [1,6-fructose diphosphate] | had no such effect |  | 
2 | O=C(O)[C@@H](CO)OP(=O)(O)O [2-phosphoglycerate] | significantly inhibit |  | AMPK α-catalytic subunit phosphorylation signaling ([1]; metabolite 200 μM, FIG. 1D): inhibitory effects
3 | O=CC(O)COP(=O)(O)O (stereo not drawn) [3-phosphoglyceraldehyde] | had no such effect | had no such effect | 
4 | O=C(O)[C@H](O)COP(=O)(O)O [3-phosphoglycerate] | significantly inhibit | strongly inhibited | intracellular AMPK α-catalytic subunit phosphorylation signaling ([1]; metabolite 100-800 μM, FIG. 1C): significantly inhibited intracellular AMPK α-catalytic subunit phosphorylation signaling in a dose-dependent manner; phosphorylation of AMPK α1 by LKB1 kinase complex ([2]; metabolite 50-400 μM, FIG. 1I): inhibits the phosphorylation of AMPK α1 by LKB1 kinase complex in a dose-dependent manner
5 | COc1cc2nc(N3CCC(N(C)C(=O)C4CCCO4)CC3)nc(N3CCOCC3)c2cc1Cl (stereo not drawn) [S33] |  |  | inhibitory activity of compound on PGK1 [3]: effective inhibitor of PGK1; ACC1 phosphorylation [4]: upregulate; AMPK α-catalytic subunit phosphorylation [4]: upregulate
